Data set [1] deals with cloned human kappa receptor (Homo sapiens, UniProt P41145). Description: biochemical. The class given is binding.
For data set [2], the system named is formalin-induced flinching. The data set is described as follows: animal or person. The class given is in vivo, male Sprague-Dawley rats. As to conditions: for inhibition in vivo at 0.3 µM: Rattus norvegicus, read-out: Formalin (% A @ 300 nM) i. paw.
Setting [3] is: Table IA, read-out: Ki(nM) (3H)-Diprenorphin.

One may read the Ki as the equilibrium dissociation constant of an inhibitor or competing ligand from its target. As usually defined, the melting point is the temperature, or range, at which the solid turns liquid.

“And” between values parts separate entries of the source, which are not always exact repeats. Identical values can stand only once. Counter-ions that a name gives are not always drawn. Like-named read-outs stand apart in the source and are kept apart here. Where only a bound is given, the exact number is not on record here.

Sequence of cloned human kappa receptor (P41145 whole entry): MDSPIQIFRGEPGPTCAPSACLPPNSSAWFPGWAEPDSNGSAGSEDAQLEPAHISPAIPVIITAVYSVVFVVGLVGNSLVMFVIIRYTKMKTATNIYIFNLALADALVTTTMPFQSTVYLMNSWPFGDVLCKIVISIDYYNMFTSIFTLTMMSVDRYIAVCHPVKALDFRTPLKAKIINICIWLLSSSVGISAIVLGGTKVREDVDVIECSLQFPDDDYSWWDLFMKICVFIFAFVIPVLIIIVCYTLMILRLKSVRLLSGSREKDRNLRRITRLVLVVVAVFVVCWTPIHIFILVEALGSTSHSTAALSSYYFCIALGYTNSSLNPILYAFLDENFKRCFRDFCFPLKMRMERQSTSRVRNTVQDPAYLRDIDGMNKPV

In turn, `COC(=O)N1CCN(C(=O)Cc2ccc(Cl)c(Cl)c2)C(CN2CCC[C@H]2COC(=O)Cc2ccc(Cl)c(Cl)c2)C1` (mixture of isomers) [Example 1k, Methyl-4-[(3,4-dichlorophenyl)acetyl]-3-(R,S)-[(2-(S)-pyrrolidinemethyl-3′,4′-dichlorophenyl acetate)methyl]-1-piperazinecarboxylate hydrochloride] came in with a Ki in data set [1] (Ki, nM 3H-Diprenorphin) of 51.5 nM. Also, in data set [2], the inhibition in vivo at 0.3 µM amounted to 95%.

In the case of `CS(=O)(=O)N1CCN(C(=O)Cc2ccc(Cl)c(Cl)c2)C(CN2CC[C@H](O)C2)C1` (mixture of isomers) [Example 1ll, 4-Methylsulphonyl-1-[(3,4-dichlorophenyl)acetyl]-2-(R,S)-[(3-(S)-hydroxy-1-pyrrolidinyl)methyl]piperazine hydrochloride], the affinity in data set [1] (Ki, nM 3H-Diprenorphin), expressed as Ki, was 2.86 nM. Further, the inhibition in vivo at 0.3 µM in data set [2] was 52%. In turn, `COC(=O)N1CCN(C(=O)Cc2ccc(C(F)(F)F)cc2[N+](=O)[O-])C(CN2CCC[C@H]2CO)C1` (mixture of isomers) [Example 1m, Methyl-4-[(2-nitro-4-α,α,α-trifluoromethylphenyl)acetyl]-3-(R,S)-[(2-(S)-pyrrolidinemethanol)methyl]-1-piperazinecarboxylate hydrochloride] showed a Ki in data set [1] (Ki, nM 3H-Diprenorphin) of 49.5 nM. Further, the “Formalin A50 mg/kg s.c.” value in data set [2] (rat, in vivo, sc) is listed as 1.7 mg/kg.

With `COC(=O)N1CCN(C(=O)Cc2ccc(S(C)(=O)=O)cc2)C(CN2CCC[C@H]2CO)C1` (mixture of isomers) [Example 1o, Methyl-4-[(4-methylsulphonylphenyl)acetyl]-3-(R,S)-[(2-(S)-pyrrolidinemethanol)methyl]-1-piperazinecarboxylate hydrochloride], in data set [1] (setting [3]), the Ki stood at 133 nM. In addition, in data set [2], the inhibition in vivo at 0.3 µM was 41%. Consider `COC(=O)N1CCN(C(=O)Cc2ccc(Cl)c(Cl)c2)C(CN2CC[C@H](OC(=O)Cc3ccc(Cl)c(Cl)c3)C2)C1` (mixture of isomers) [Example 1q, Methyl-4-[(3,4-dichlorophenyl)acetyl]-2-(R,S)-[3-(S)-(3′,4′-dichlorophenyl acetate)-1-(pyrrolidinyl)methyl]-1-piperazinecarboxylate hydrochloride], for which the affinity in data set [1] (Ki, nM 3H-Diprenorphin), expressed as Ki, was 5.2 nM. Also, the inhibition in vivo at 0.3 µM in data set [2] was determined as 98%. Turning to `CC(=O)N1CCN(C(=O)Cc2ccc(Cl)c(Cl)c2)C(CN2CC[C@H](OC(=O)Cc3ccc(Cl)c(Cl)c3)C2)C1` (mixture of isomers) [Example 1w, 4-Acetyl-1-[(3,4-dichlorophenyl)acetyl]-2-(R,S)-[3-(S)-(3′,4′-dichlorophenyl acetate)-1-(pyrrolidinyl)methyl]piperazine hydrochloride], the Ki in data set [1] (setting [3]) stood at 1160 nM. For the same molecule, the inhibition in vivo at 0.3 µM in data set [2] was 60%.

As to `CC(=O)N1CCN(C(=O)Cc2ccc(Cl)c(Cl)c2)C(CN2CCC[C@H]2CO)C1` (mixture of isomers) [Example 1z, 4-Acetyl-1-[(3,4-dichlorophenyl)acetyl]-2-(R,S)-[(2-(S)-pyrrolidinemethanol)methyl]piperazine hydrochloride], the inhibition constant Ki in data set [1] (setting [3]) stood at 102 nM. Also, the inhibition in vivo at 0.3 µM in data set [2] worked out at 71%. In the case of `COC(=O)N1CCN(C(=O)Cc2ccc(C(F)(F)F)cc2N(S(C)(=O)=O)S(C)(=O)=O)C(CN2CCCC2)C1` (racemic) (as salt: hydrochloride) [Example 1b, Methyl-4-[(2-[N,N-bis-methylsulfonamido]-4-trifluoromethyphenyl)acetyl]-3-(R,S)-[(1-pyrrolidinyl)-methyl]-1-piperazinecarboxylate dihydrochloride], the melting point was 155 to 160 °C. The same measure, in the same setting: next, `COC(=O)N1CCN(C(=O)Cc2ccccc2N(S(C)(=O)=O)S(C)(=O)=O)C(CN2CCCC2)C1` (racemic) (as salt: hydrochloride) [Example 1d, Methyl-4-[(2-[N,N-bis-methylsulfonamido]phenyl)acetyl]-3-(R,S)-[(1-pyrrolidinyl)methyl]-1-piperazinecarboxylate hydrochloride]: 145 to 150 °C. On the same count and under the same terms, to `CNS(=O)(=O)c1ccccc1CC(=O)N1CCN(C(=O)OC)CC1CN1CCCC1` (racemic) (as salt: hydrochloride) [Example 1e, Methyl-4-[(2-[N-methylamino)sulfamyl]phenyl)acetyl]-3-(R,S)-[(1-pyrrolidinyl)methyl]-1-piperazinecarboxylate hydrochloride] belongs 155 to 160 °C; to `CNS(=O)(=O)c1ccc(CC(=O)N2CCN(C(=O)OC)CC2CN2CCCC2)cc1` (racemic) (as salt: hydrochloride) [Example 1f, Methyl-4-[-4-[N-methylamino)sulfamyl]phenyl)acetyl]-3-(R,S)-[(1-pyrrolidinyl)methyl]-1-piperazinecarboxylate hydrochloride], 135 to 140 °C. Still for that read-out and setting: next, `O=C(Cc1ccc(C(F)(F)F)cc1)N1CCN(C(=O)C(F)(F)F)CC1CN1CCCC1` (racemic) (as salt: hydrochloride) [Example 1h, 4-Trifluoroacetyl-1-[(-4-trifluoromethylphenyl)acetyl]-2-(R,S)-(1-pyrrolidinyl)methyl]piperazine hydrochloride]: 140 to 145 °C; `CN(C(=O)Cc1ccc(Cl)c(Cl)c1)[C@H](CN1CCCC1)c1cccc(NS(N)(=O)=O)c1` (racemic) (as salt: hydrochloride) [Example 3c, 2-(3,4-Dichlorophenyl)-N-methyl-N-[(1R,S)-1-(3-sulfamidophenyl)-2-(1-pyrrolidinyl)ethyl]acetamide hydrochloride]: 198 to 200 °C. `COc1ccc(C(CN2CCCC2)N(C)C(=O)Cc2ccccc2NS(C)(=O)=O)cc1` (racemic) (as salt: salt) [Example 128] displayed a melting point of 170 to 172 °C. Consider `CNS(=O)(=O)c1ccccc1CC(=O)N(C)C(CN1CCCC1)c1ccccc1F` (racemic) (as salt: salt) [Example 147], for which the melting point lay in the range of 232 to 234 °C. The same measure, in the same setting: next, `COc1cccc(C(CN2CCCC2)N(C)C(=O)Cc2ccccc2NS(C)(=O)=O)c1` (racemic) (as salt: sulfonic acid salt) [Example 3uu, (R,S)-1-[2-(Methanesulfonylamino)phenyl-N-methylacetamido]-1-(3-methoxyphenyl)-2-(1-pyrrolidino)-ethane, methanesulfonic acid salt]: 135 °C (dec.). Same read-out and setting: to `CN(C(=O)Cc1ccccc1NS(C)(=O)=O)C(CN1CCCC1)c1cccc(O)c1` (racemic) (as salt: sulfonic acid salt) [Example 3vv, (R,S)-1-[2-(Methanesulfonylamino)phenyl-N-methylacetamido]-1-(3-hydroxyphenyl)-2-(1-pyrrolidino)-ethane, methanesulfonic acid salt] belongs 232 to 234 °C. `CC(=O)N1CCN(C(=O)Cc2ccc(C(F)(F)F)cc2)C(CN2CCCC2)C1` (racemic) [(R,S-10b), hydrochloride]: in data set [1] (Ki, nM 3H-Diprenorphin), the Ki was 26 nM and 24 nM. In addition, in data set [2] (rat, in vivo), the “Late Phase Formalin, % @ 300; i.paw” value worked out at 89% @ 300. On to `COC(=O)N1CCN(C(=O)Cc2ccc(C(F)(F)F)cc2NCC(=O)O)C(CN2CCCC2)C1` (racemic) [Example 1a, Methyl-4-[-2-glycyl-4-(trifluoromethylphenyl)acetyl]-3-(R,S)-[(1-pyrrolidinyl)-methyl]-1-piperazinecarboxylate], for which the melting point is 165 to 170 °C. Moreover, in data set [1] (setting [3]), the Ki came to 248 nM. The molecule `COC(=O)N1CCN(C(=O)Cc2ccccc2N(S(C)(=O)=O)S(C)(=O)=O)C(CN2CCCC2)C1` (racemic) [Example 1d, Methyl-4-[(2-[N,N-bis-methylsulfonamido]phenyl)acetyl]-3-(R,S)-[(1-pyrrolidinyl)methyl]-1-piperazinecarboxylate hydrochloride] yielded a Ki in data set [1] (Ki, nM 3H-Diprenorphin) of 7.6 nM. For the same molecule, the inhibition in vivo at 0.3 µM in data set [2] is 77%. For `CNS(=O)(=O)c1ccccc1CC(=O)N1CCN(C(=O)OC)CC1CN1CCCC1` (racemic) [Example 1e, Methyl-4-[(2-[N-methylamino)sulfamyl]phenyl)acetyl]-3-(R,S)-[(1-pyrrolidinyl)methyl]-1-piperazinecarboxylate hydrochloride] the same measures were 14 nM and 55%. Regarding `O=C(Cc1ccc(C(F)(F)F)cc1)N1CCN(C(=O)C(F)(F)F)CC1CN1CCCC1` (racemic) [Example 1h, 4-Trifluoroacetyl-1-[(-4-trifluoromethylphenyl)acetyl]-2-(R,S)-(1-pyrrolidinyl)methyl]piperazine hydrochloride], in data set [1] (Ki, nM 3H-Diprenorphin), the affinity corresponds to a Ki of 50 nM. Further, the inhibition in vivo at 0.3 µM in data set [2] was 100%. Molecule `CNS(=O)(=O)c1cc(CC(=O)N(C)[C@@H]2CCCC[C@H]2N2CCCC2)ccc1F.Cl` (racemic) [Example 4i, (±)-trans-4-Fluoro-3-methylsulfamoyl-N-methyl-N-[2-(1-pyrrolidinyl)cyclohexyl]phenylacetamide hydrochloride] returned a melting point of 265 to 267 °C. Further, the “[3H]-Diprenorphin, % @ 1 μM” value in data set [1] came out at 31% @ 1 μM.

Consider `CN(C(=O)Cc1ccc(Cl)c(Cl)c1)[C@@H]1c2cc(N(CC(=O)O)CC(=O)O)ccc2CC[C@H]1N1CCCC1` (relative stereo) (as salt: HCl), for which the melting point was 160 °C (dec.). Consider `CNS(=O)(=O)c1cccc(CC(=O)N(C)[C@H](CN2CCCC2)c2ccccc2)c1.Cl` [Example 3q, 3-(N-Methylsulfamoyl)-phenyl-N-methyl-N-[(1S)-1-phenyl-2-(1-pyrrolidinyl)ethyl]acetamide hydrochloride], for which the melting point is > 250 °C (dec.). The molecule further returned a Ki in data set [1] (Ki (nM) [3H]-Diprenorphin κ) of 3.2 nM. Turning to `CN(C(=O)C(c1ccccc1)c1ccccc1)[C@H](CN1CC[C@H](O)C1)c1ccccc1` [III-43, reference compound], the “Late Phase Formalin A50, mg/ms (i-paw)” value in data set [2] (rat, in vivo) is 59 mg/ms (i-paw) 28 mg/kg (sc). Also, the “Late Phase Formalin A50, mg/kg (sc)” value in data set [2] (rat, in vivo, sc) was 59 mg/ms (i-paw) 28 mg/kg (sc).

For the origin of these results see patent publication US20050020576A1, “Kappa agonist compounds and pharmaceutical formulations thereof” (priority 1996, published 2005).
